Test results from patent US20240398737A1, “FUNCTIONALIZED LONG-CHAIN HYDROCARBON MONO- AND DI-CARBOXYLIC ACIDS AND DERIVATIVES THEREOF, AND THEIR USE FOR THE PREVENTION OR TREATMENT OF DISEASE” (Espervita Therapeutics, Inc., priority 2021, published 2024).

Columns and labels:
[1] = test system: human hematopoietic stem and progenitor cells; assay: Megakaryopoiesis and platelet production in cultured human hematopoietic stem and progenitor cells; type: cell-based; settings: added day 0, 8 days culture, I-32 and I-1 30 μM, ABT-737 6 μmol
Experimental: Materials and Methods. Hematopoietic stem and progenitor cells, identified as viable CD45+ CD34+ cells, were isolated from peripheral blood of healthy donors by a method known in the art (see Ivetic N, Nazi I, Karim N et al. Producing megakaryocytes from a human peripheral blood source. Transfusion 2016; 56:1066-74). These isolated cells were then analyzed for purity before being expanded for four days using a commercial supplement to increase their cell population. After expansion, the cells were analyzed for purity, washed, and stimulated with a saturating concentration of thrombopoietin (20 ng/mL) and stem cell factor (50 ng/mL) to begin megakaryopoiesis. Compound I-32 and Compound I-1 were added at this timepoint at a concentration of 30 μM. The cells were then cultured for 8 days to develop into megakaryocytes and analyzed via flow cytometry to assess their number, maturity, and platelet count as defined by CD41a, CD42b and Calcein-AM expression. In addition, Compound I-32 and Compound I-1 were added to cells during the later stages of development (day 6) to assess their impact on maturation. ABT-737 (6 μmol) was used as a positive control and a DMSO vehicle control (<0.15% v/v) was the negative control. All counts are normalized to a media control (PBS) as a reference for basic cell growth.
Statistical analysis. Statistical analyses were carried out by comparing effects on measured parameters in comparison to vehicle control. A value of […] (One-way ANOVA multiple comparisons) was considered as significant.
Two isolations were performed from two healthy donors (2 males) and used to assess the impacts of Compound I-32 and Compound I-1. For one of the isolations, enough expanded hematopoietic stem and progenitor cells (HSPC) (Experiment 1) were obtained so that the addition of the compounds on day 6 was also performed along with the initial experiment. For the other experiment (Experiment 2) only an 8-day incubation was performed.
All results were normalized to a reference media (PBS) and Compound I-32 and Compound I-1 were compared to a vehicle control. Reference compound ABT-737 is a known BCL-2 inhibitor and was used a positive control. Results in FIGS. 25A-25J are the summary of a single experiments conducted in triplicates. No statistical inhibition was detected for Compound I-32 or Compound I-1 (p>0.05 one-way ANOVA).

[2] = test system: Mouse primary hepatocytes; assay: 14C-acetate incorporation into total lipids in mouse primary hepatocytes; type: cell-based; settings: incorporation of 14C-acetate in primary mouse hepatocyte total lipids, 4 hours; for inhibition at 100 µM: read-out: % change from control at 100 μM ± SEM(n)
Experimental: After perfusion, collagen digested liver cells were re-suspended in William's E media (11 mM glucose) (Gibco) supplemented with 10% fetal bovine serum (FBS) (Gibco), 2 mM L-glutamine (Gibco) and 1% Antibiotic-Antimycotic (Gibco) mixture and seeded in white opaque 96-well plates. On the following day, the cells were serum-starved for 2 hours, then treated with 0 μM, 0.1 μM, 0.3 μM, 0.5 μM, 1 μM, 3 μM, 10 μM, and 100 μM of Compound I-32, Compound I-1, Compound III-1 or Reference Compound (e.g., any of Compounds A-E or bempedoic acid) in the presence of ^14C-Acetate (1 μCi/ml, PerkinElmer). Each of Compound I-32, Compound I-1, Compound III-1, and Reference Compound was solubilized in 100% DMSO to a final concentration of 100 mM stock solution. In the experimental condition, the stock solution was diluted in serum free media (William's E media (11 mM glucose) (Gibco), 2 mM L-glutamine (Gibco) and 1% Antibiotic-Antimycotic) to yield the desired concentration of each compound. […] After 4 hours of treatment, the plates were washed two times with PBS (×1) and 100 μL microscint fluid (Microscint 0, part #601361) was added in each well. Plates were wrapped with aluminum foil and were shaken at 250 rpm for 2 h. After 2 h of shaking, ^14C incorporation into lipid was determined by liquid scintillation counting using a TopCount NXT Microplate Scintillation and Luminescence Counter (Perkin Elmer).
The effects of Compound I-32, Compound I-1, and Compound III-1 on mouse primary hepatocyte lipogenesis are represented in Table 13. Each Compound was assayed at a concentration of 0 μM (vehicle control), 0.1 μM, 0.3 μM, 0.5 μM, 1 μM, 3 μM, 10 μM, and 100 μM, unless otherwise noted. Statistically significant inhibition was determined by one-way ANOVA and Dennett's post hoc test where appropriate. […] IC50 values were determined by nonlinear regression. All statistical analyses were carried out using GraphPad Prism 8 software. A p-value of less than or equal 0.05 was considered significant.

human ACLY = human ACLY (Homo sapiens (Human), UniProt P53396); assay: ATP-citrate lyase (ACLY) enzymatic assay (ADP-Glo); type: biochemical; settings: recombinant human ACLY; 10 concentrations from 300 μM; Runs 1-3; read-out: Compound IC50 (M) ACLY
Experimental: ATP citrate lyase was obtained from Sino Biological Inc. Cat #11769-H07B, Lot #LC08DE1701. It was prepared from a DNA sequence encoding the human ACLY (P53396) (Met 1-Met 1101) expressed in Baculovirus-Insect Cells, with a polyhistidine tag at the N-terminus. The recombinant human ACLY consists of 1120 amino acids and has a calculated molecular mass of 123 kDa. It migrates as an approximately 110 kDa band in SDS-PAGE under reducing conditions. The enzyme came as a lyophilized powder in sterile 20 mM Tris, 500 mM NaCl, pH 8.0, 10% glycine. Normally 5%-8% trehalose and mannitol are added as protectants before lyophilization. The recombinant human ACLY from Sino Biological was formulated in 45 mM Tris-HCl, pH 8.0, 124 mM NaCl, 2.4 mM KCl, 18 mM glutathione, 10% glycerol, and 3 mM DTT.
To detect ADP produced from ACL assay, the ADP-Glo™ assay format from Promega, Madison, WI, was used, to detect the conversion of ATP to ADP. […] This assay is performed in two steps: i) after the ACL-mediated enzymatic reaction that utilizes ATP and produces ADP, ADP-Glo™ Reagent is added to terminate the kinase reaction and deplete the remaining ATP, and ii) the Kinase Detection Reagent is added to convert ADP to ATP and allow the newly synthesized ATP to be measured using a luciferase/luciferin reaction. The light generated, measured in a luminometer, correlates to the amount of ADP generated in the ACL assay, which is indicative of ACL activity.
Data represent nM or μM ADP produced, % Activity (relative to no inhibitor controls), and curve fits were performed by GraphPad Prism software. The IC50 concentration-response curves were generated for ADPGlo™ using recombinant human ACL from Sino Biologicals Inc.

[3] = Synthesis of CoA derivatives in rat liver microsomes (LCMS detection); type: in vitro ADME; settings: 1 mM substrate, 30 min sample
Experimental: Reaction products were eluted using the gradient shown below: […]
Formation and detection of the Co-A derivatives of Compounds 1-32, 1-61, I-1 or III-1 in rat liver microsomes: 1 mM of each compound (Compounds I-32, I-61, I-1 or III-1) or palmitic acid (control) were used as substrate in the rat microsomal preparation for 0 and 30 min and extracted as described above. […] Further confirmation was obtained by exposing the compound to a collision energy causing the characteristic neutral loss of 3′-phosphonucleoside diphosphate (507 Da) producing the fragment ion 499.3 m/z. There was no evidence of the CoA derivative in the time 0 min sample.

human ACLY, sequence (P53396 whole entry): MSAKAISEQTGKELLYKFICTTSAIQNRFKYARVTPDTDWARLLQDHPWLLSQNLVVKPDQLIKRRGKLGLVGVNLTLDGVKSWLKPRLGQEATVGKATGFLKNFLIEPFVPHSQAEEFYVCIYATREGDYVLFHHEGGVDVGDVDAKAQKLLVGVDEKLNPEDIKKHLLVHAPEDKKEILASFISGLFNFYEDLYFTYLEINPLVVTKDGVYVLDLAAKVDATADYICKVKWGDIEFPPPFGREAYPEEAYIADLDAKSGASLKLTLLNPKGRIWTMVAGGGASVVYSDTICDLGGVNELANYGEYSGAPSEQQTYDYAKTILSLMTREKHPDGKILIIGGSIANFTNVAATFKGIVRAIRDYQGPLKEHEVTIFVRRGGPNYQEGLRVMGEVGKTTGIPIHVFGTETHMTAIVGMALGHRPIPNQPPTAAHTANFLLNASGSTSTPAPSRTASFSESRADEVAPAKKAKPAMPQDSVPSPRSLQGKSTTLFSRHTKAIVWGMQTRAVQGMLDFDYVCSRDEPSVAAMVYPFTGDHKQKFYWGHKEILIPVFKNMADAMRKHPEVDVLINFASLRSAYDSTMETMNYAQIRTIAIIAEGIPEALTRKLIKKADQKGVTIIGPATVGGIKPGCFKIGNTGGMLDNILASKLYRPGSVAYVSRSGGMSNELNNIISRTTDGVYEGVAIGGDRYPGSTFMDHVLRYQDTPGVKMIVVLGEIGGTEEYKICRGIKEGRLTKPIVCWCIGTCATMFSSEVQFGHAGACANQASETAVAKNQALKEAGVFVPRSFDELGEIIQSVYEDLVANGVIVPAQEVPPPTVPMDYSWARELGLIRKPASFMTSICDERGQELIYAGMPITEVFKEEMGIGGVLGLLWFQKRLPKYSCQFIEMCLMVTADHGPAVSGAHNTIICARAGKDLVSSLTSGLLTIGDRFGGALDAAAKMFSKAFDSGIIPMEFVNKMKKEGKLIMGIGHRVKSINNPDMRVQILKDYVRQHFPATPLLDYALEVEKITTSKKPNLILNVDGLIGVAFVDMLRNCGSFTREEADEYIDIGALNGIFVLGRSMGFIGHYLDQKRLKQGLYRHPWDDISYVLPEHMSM

With CN(C)CC[C@H](CSc1ccccc1)Nc1ccc(S(=O)(=O)NC(=O)c2ccc(N3CCN(Cc4ccccc4-c4ccc(Cl)cc4)CC3)cc2)cc1[N+](=O)[O-] [ABT-737, reference compound] the “CD41a+ mean fluorescence intensity (MFI), normalized” value [1] was 46±34%, the “Normalized cell size (CD41a+)” value [1] was 81±6% and the “CD41a CD42b+ counts (mature megakaryocytes), normalized to reference media control” value ([1]; average±SD) was 2±1%. For the same compound, the “CD41a+ cells (megakaryocytes), normalized to reference media control” value ([1]; average±SD) was 9±5% and the “Platelet counts, normalized to reference media control” value ([1]; average±SD) was 3±3%.
In the case of CC(C)(CO)CCCCC(=O)CCCCC(C)(C)CO [A], the “% change from control at 100 μM ± SEM(n)” value [2] is reported as −41 ± 4.8 (n = 2) %.
In the case of CC(C)(CCCCCC(O)CCCCCC(C)(C)C(=O)O)C(=O)O [BA, Bempedoic acid], the “% change from control at 100 μM ± SEM(n)” value [2] is reported as −79 ± 1.5 (n = 4) %.
COc1ccc(-c2ccccc2)cc1NS(=O)(=O)c1cc(Cl)cc(Cl)c1O [BMS-303141, reference compound] showed an IC50 (human ACLY) of 4.45e-07 M.
With CC(C)(CO)CCCCC(=O)CCCCC(C)(C)C(=O)O [B] the IC50 [2] was 25.6 µM and the inhibition at 100 µM [2] was 69 ± 2.3%.
For CC(C)(CCCCCC(=O)CCCCCC(C)(C)C(=O)O)C(=O)O [C], the inhibition at 100 µM [2] was 76 ± 41%.
With CC(C)(CO)CCCCCC(=O)CCCCCC(C)(C)CO [D] the “% change from control at 100 μM ± SEM(n)” value [2] was −90 ± 1.5 (n = 4) %.
With CC(C)(CCCCCCC(=O)CCCCCCC(C)(C)C(=O)O)C(=O)O [E] the “% change from control at 100 μM ± SEM(n)” value [2] was −62 ± 4.5 (n = 4) %.
With CC(C)(CCCCCCCCCCCC(C)(C)C(=O)O)C(=O)O [F] the “% change from control at 100 μM ± SEM(n)” value [2] was −91 ± 3.6 (n = 4) %.
For CC(C)(CCCc1ccccc1CCCC(C)(C)C(=O)SCCNC(=O)CCNC(=O)[C@H](O)C(C)(C)COP(=O)(O)OP(=O)(O)OC[C@H]1O[C@@H](n2cnc3c(N)ncnc32)[C@H](O)[C@@H]1OP(=O)(O)O)C(=O)O [I-61—CoA], the “Formation of the CoA derivative (LCMS detection, fragmentation confirmation)” value [3] was “could not be confirmed”.
With CC(C)(CCCc1ccc(CCCC(C)(C)C(=O)O)cc1)C(=O)O [III-1] the “% change from control at 100 μM ± SEM(n)” value [2] was −70 ± 2.2 (n = 4) %.
